Data reported in ChEMBL document CHEMBL1201862, “PubChem BioAssay data set” (2004).
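How tested: cells in 96-well plates exposed to compound for 48 hours at five concentrations. GI50: concentration for 50% inhibition of growth.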 Activity calls are given as the source filed them. Cut-off read from the data, not from the text of the source: active = GI50 up to about 1.1 µM and inactive = higher.

How the values were obtained:
Test in all cases: NCI tumour cell line growth inhibition, 48 h
IGROV-1 = test system: IGROV-1
BT-549 = test system: BT-549
Malme-3M = test system: Malme-3M
OVCAR-3 = test system: OVCAR-3
OVCAR-8 = test system: OVCAR-8
SR = test system: SR
LOX IMVI = test system: LOX IMVI
EKVX = test system: EKVX
SN12C = test system: SN12C
OVCAR-5 = test system: OVCAR-5
PC-3 = test system: PC-3
K562 = test system: K562
SK-MEL-28 = test system: SK-MEL-28
A498 = test system: A498
COLO 205 = test system: COLO 205
SF-295 = test system: SF-295
HOP-92 = test system: HOP-92
SNB-19 = test system: SNB-19
RPMI-8226 = test system: RPMI-8226
NCI/ADR-RES = test system: NCI/ADR-RES

Row | SMILES | GI50 (IGROV-1) | GI50 (BT-549) | GI50 (Malme-3M) | GI50 (OVCAR-3) | GI50 (OVCAR-8) | GI50 (SR) | GI50 (LOX IMVI) | GI50 (EKVX) | GI50 (SN12C) | GI50 (OVCAR-5) | GI50 (PC-3) | GI50 (K562) | GI50 (SK-MEL-28) | GI50 (A498) | GI50 (COLO 205) | GI50 (SF-295) | GI50 (HOP-92) | GI50 (SNB-19) | GI50 (RPMI-8226) | GI50 (NCI/ADR-RES)
1 | O=C(Cc1ccccc1)Nn1c(-c2ccccc2)nc2ccccc2c1=O | > 100 µM (inactive) | > 100 µM (inactive) | > 100 µM (inactive) | > 100 µM (inactive) | > 100 µM (inactive) | > 100 µM (inactive) | > 100 µM (inactive) | > 100 µM (inactive) | > 100 µM (inactive) | > 100 µM (inactive) | > 100 µM (inactive) | > 100 µM (inactive) | > 100 µM (inactive) | 62.7 µM (inactive) | > 100 µM (inactive) | > 100 µM (inactive) | > 100 µM (inactive) | > 100 µM (inactive) | > 100 µM (inactive) | 
2 | O=c1[nH]/c(=C/c2ccc3c(c2)OCO3)c(=O)[nH]/c1=C/c1ccc2c(c1)OCO2 | > 10 µM (inactive) | > 10 µM (inactive) | > 10 µM (inactive) | > 10 µM (inactive) | > 10 µM (inactive) |  | > 10 µM (inactive) | > 10 µM (inactive) | > 10 µM (inactive) | > 10 µM (inactive) | > 10 µM (inactive) | > 10 µM (inactive) | 8.89 µM (inactive) | > 10 µM (inactive) | > 10 µM (inactive) | > 10 µM (inactive) | > 10 µM (inactive) | > 10 µM (inactive) | > 10 µM (inactive) | > 10 µM (inactive)
3 | CC1(c2ccc(Cl)s2)CC(c2ccc(Cl)s2)=C(C#N)C(=C(C#N)C#N)N1 (stereo not drawn) | 19.9 µM (inactive) | 20.9 µM (inactive) | 22.8 µM (inactive) | 15 µM (inactive) | 20.8 µM (inactive) |  | 22.3 µM (inactive) | 18.2 µM (inactive) | 21 µM (inactive) | 19.4 µM (inactive) | 17.6 µM (inactive) | 29.6 µM (inactive) | 19.4 µM (inactive) | 19.4 µM (inactive) | 19.9 µM (inactive) | 15 µM (inactive) | 15.4 µM (inactive) | 20.8 µM (inactive) | 32 µM (inactive) | 19.3 µM (inactive)
4 | COC1OC(CBr)C(OC(c2ccccc2)(c2ccccc2)c2ccccc2)C(OC(c2ccccc2)(c2ccccc2)c2ccccc2)C1OC(c1ccccc1)(c1ccccc1)c1ccccc1 (stereo not drawn) | 78.2 µM (inactive) | 56.9 µM (inactive) | 33.8 µM (inactive) | 14.1 µM (inactive) | 27.1 µM (inactive) | > 100 µM (inactive) | > 100 µM (inactive) | 17.5 µM (inactive) | 41.3 µM (inactive) | 41 µM (inactive) |  | > 100 µM (inactive) | > 100 µM (inactive) | 78.2 µM (inactive) | > 100 µM (inactive) | 42 µM (inactive) | 17.1 µM (inactive) | 24.3 µM (inactive) | 65.3 µM (inactive) | 51.6 µM (inactive)
5 | O=C(Nc1ccccc1)c1cc(S(=O)(=O)Nc2nc3cccnc3[nH]2)c(SSc2cc(Cl)c(C(=O)Nc3ccccc3)cc2S(=O)(=O)Nc2nc3cccnc3[nH]2)cc1Cl | > 100 µM (inactive) | > 100 µM (inactive) | > 100 µM (inactive) | > 100 µM (inactive) | > 100 µM (inactive) |  | > 100 µM (inactive) | > 100 µM (inactive) | > 100 µM (inactive) | > 100 µM (inactive) | > 100 µM (inactive) | > 100 µM (inactive) | > 100 µM (inactive) | > 100 µM (inactive) | > 100 µM (inactive) | > 100 µM (inactive) | > 100 µM (inactive) | > 100 µM (inactive) | > 100 µM (inactive) | > 100 µM (inactive)
6 | COC(=O)c1c(-c2ccc(Cl)cc2)cc2c3ccccc3n(C)c2c1C(=O)OC | > 100 µM (inactive) | > 100 µM (inactive) | > 100 µM (inactive) | > 100 µM (inactive) | > 100 µM (inactive) |  | > 100 µM (inactive) | > 100 µM (inactive) | > 100 µM (inactive) | > 100 µM (inactive) | > 100 µM (inactive) | 22.8 µM (inactive) | > 100 µM (inactive) | > 100 µM (inactive) | > 100 µM (inactive) | > 100 µM (inactive) | > 100 µM (inactive) | > 100 µM (inactive) |  | > 100 µM (inactive)
7 | CC(=O)OC1C(C)OC(OC(=O)C2CCC3C(C2)OC2(CC(OC(=O)/C=C/c4ccccc4)C(C)CO2)C32CO2)C(OC2OC(C)C(O)C(OC(C)=O)C2O)C1O (stereo not drawn) | < 0.01 µM (active) | < 0.01 µM (active) | < 0.01 µM (active) | < 0.01 µM (active) | < 0.01 µM (active) | < 0.01 µM (active) | < 0.01 µM (active) | < 0.01 µM (active) | < 0.01 µM (active) | < 0.01 µM (active) | < 0.01 µM (active) | < 0.01 µM (active) | < 0.01 µM (active) | 0.0205 µM (active) | < 0.01 µM (active) | < 0.01 µM (active) | < 0.01 µM (active) | < 0.01 µM (active) | < 0.01 µM (active) | 
8 | Cc1ccc(-n2cc([Si](C)(C)C)nn2)s1 |  | > 100 µM (inactive) | > 100 µM (inactive) | > 100 µM (inactive) | > 100 µM (inactive) |  | > 100 µM (inactive) |  | > 100 µM (inactive) | > 100 µM (inactive) | 97.5 µM (inactive) | 45.1 µM (inactive) | > 100 µM (inactive) | > 100 µM (inactive) | 61.8 µM (inactive) | > 100 µM (inactive) | > 100 µM (inactive) | > 100 µM (inactive) | 22.9 µM (inactive) | 48.4 µM (inactive)
9 | CCN(CCC#N)C(=O)Nc1ccccc1 | > 100 µM (inactive) | > 100 µM (inactive) | 62.7 µM (inactive) | > 100 µM (inactive) | > 100 µM (inactive) |  | > 100 µM (inactive) | > 100 µM (inactive) | > 100 µM (inactive) | > 100 µM (inactive) | > 100 µM (inactive) | > 100 µM (inactive) | > 100 µM (inactive) |  | > 100 µM (inactive) | > 100 µM (inactive) | > 100 µM (inactive) | > 100 µM (inactive) | > 100 µM (inactive) | > 100 µM (inactive)
10 | O=c1cc(N2CCCC2)[nH]c(=O)n1-c1cccc(Cl)c1 | > 100 µM (inactive) | > 100 µM (inactive) | > 100 µM (inactive) | > 100 µM (inactive) | > 100 µM (inactive) |  | > 100 µM (inactive) | > 100 µM (inactive) | > 100 µM (inactive) | > 100 µM (inactive) | > 100 µM (inactive) | > 100 µM (inactive) |  | > 100 µM (inactive) | > 100 µM (inactive) | > 100 µM (inactive) | > 100 µM (inactive) | > 100 µM (inactive) | > 100 µM (inactive) | > 100 µM (inactive)
11 | CC(=O)Oc1ccc(C)c2c1[C@H]1CC[C@]3(C)[C@@H](OC(C)=O)CC[C@H]3[C@@H]1CC2 | 18.7 µM (inactive) | 17.5 µM (inactive) | 15.7 µM (inactive) | 18.2 µM (inactive) | 22.4 µM (inactive) | 34.1 µM (inactive) | 17 µM (inactive) | 15.5 µM (inactive) | 18.8 µM (inactive) | > 100 µM (inactive) |  | 23.4 µM (inactive) | 17.3 µM (inactive) | 17.6 µM (inactive) |  | 23.9 µM (inactive) | 16.9 µM (inactive) | 17.9 µM (inactive) | 19.4 µM (inactive) | 18.2 µM (inactive)
12 | CC1(C)[C@@H]2C[C@H]1C(Cc1cccc(C[C@H]3c4cc(-c5ccccn5)ncc4[C@H]4C[C@@H]3C4(C)C)c1)c1cc(-c3ccccn3)ncc12 (stereo partly drawn) | 0.452 µM (active) | 5.06 µM (inactive) |  | 0.502 µM (active) | 0.478 µM (active) |  | 0.556 µM (active) |  | 0.834 µM (active) | 1.12 µM (active) | 0.875 µM (active) | 0.435 µM (active) | 4.93 µM (inactive) | 3.51 µM (inactive) | 0.452 µM (active) | 0.92 µM (active) |  | 1.61 µM (inactive) | 1.39 µM (inactive) | 4.06 µM (inactive)
13 | O=C(O)c1ccccc1C(=O)Nn1cnnc1 | > 100 µM (inactive) | > 100 µM (inactive) |  | > 100 µM (inactive) | > 100 µM (inactive) |  | > 100 µM (inactive) | > 100 µM (inactive) | > 100 µM (inactive) | > 100 µM (inactive) | > 100 µM (inactive) | > 100 µM (inactive) | > 100 µM (inactive) |  | > 100 µM (inactive) | > 100 µM (inactive) | > 100 µM (inactive) | > 100 µM (inactive) | > 100 µM (inactive) | > 100 µM (inactive)
14 | Cc1cc(S(=O)(=O)Nc2nc3ccsc3c(=O)n2N)c(S)cc1Cl | > 100 µM (inactive) | > 100 µM (inactive) | 81.1 µM (inactive) | > 100 µM (inactive) | > 100 µM (inactive) |  | 78.9 µM (inactive) | > 100 µM (inactive) | > 100 µM (inactive) | 35.2 µM (inactive) | > 100 µM (inactive) | 86.9 µM (inactive) | > 100 µM (inactive) |  | > 100 µM (inactive) | 31.3 µM (inactive) |  | 37.2 µM (inactive) | > 100 µM (inactive) | 85.3 µM (inactive)
